Assay results published in patent US20240067702A1, “LACTAM-MODIFIED P[…]” (DONGBAO PURPLE STAR (HANGZHOU) BIOPHARMACEUTICAL CO., LTD., priority 2020, published 2024).
*1 amine or outer side, *2 acyl side, *3 side chain or, on linkers, in order; H or OH if unused. Where a SMILES comes first, the peptide text is derived from it. Bridges are numbered along the chain shown (N, C = ends). Side-chain parts run from the residue outwards. [ ]: non-standard residue; d: D form. The star is where a group is joined. C20 diacid = O=C(O)CCCCCCCCCCCCCCCCCCC(=O)*; γGlu = O=C(O)[C@H](CCC(=O)[*:2])N[*:1]; AEEA = NCCOCCOCC(=O)O; Aib = CC(C)(N)C(=O)O

Experiments:
GIPR = biological target: T1, GIPR (Homo sapiens, UniProt P48546); assay: GIPR agonist activity test in vitro (cAMP assay); assay type: cell-based; details: GIPR Agonist Activity EC50 (−) 1% HSA, CHO host cell; without 1% HSA
T1 construct: host or cells: CHO
T1 sequence (P48546 22-466): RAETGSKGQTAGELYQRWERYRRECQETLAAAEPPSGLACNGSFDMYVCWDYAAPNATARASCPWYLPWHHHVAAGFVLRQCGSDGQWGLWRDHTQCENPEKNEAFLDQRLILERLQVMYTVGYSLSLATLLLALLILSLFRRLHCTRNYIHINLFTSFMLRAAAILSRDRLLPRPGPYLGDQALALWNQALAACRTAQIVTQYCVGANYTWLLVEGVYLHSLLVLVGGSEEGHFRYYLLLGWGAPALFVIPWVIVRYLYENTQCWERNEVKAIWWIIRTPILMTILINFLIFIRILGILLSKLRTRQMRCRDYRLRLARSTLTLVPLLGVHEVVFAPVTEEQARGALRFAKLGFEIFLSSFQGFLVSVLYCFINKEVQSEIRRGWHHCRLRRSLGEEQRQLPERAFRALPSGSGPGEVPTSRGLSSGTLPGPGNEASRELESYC
Method: The cell strains were constructed by Shanghai WuXi AppTec.
The test compound was serially diluted 4-fold with 10 points. The initial concentration was 30 μM, and the dilution was completed with Bravo.
1) 100 nL of the compound was transferred to OptiPlate-384 plate using Echo.
7) The GLP-1R/GIPR cell concentration was diluted to 2.0*10^5/mL with the experimental buffer.
8) […] of the diluted cell suspension was transferred into the OptiPlate-384 plate.
9) The diluted cell suspension was incubated at room temperature for 30 minutes.
2) 10 μL of cAMP detection reagent was added.
3) The OptiPlate-384 plate was covered with TopSeal-A film and incubated at room temperature for 60 minutes.
TopSeal-A was removed and read in EnVision.

[1] = Plasma stability (PLS) test, mouse plasma; assay type: in vitro ADME; details: up to 120 min, read-out: PLS (H/M) T1/2; for half-life at 2 μM: pH 7.4, 37° C.
Method: To study the stability of test compounds in the plasma of normal mice.
1. Before the experiment, the coagulated frozen plasma was thawed in a water bath at 37° C. Plasma was centrifuged at 4000 rpm for 5 min. If there was blood clot, the blood clot was removed and the pH value was adjusted to 7.4±0.1.
2. Preparation of the test compound solution: 100 μM of the solution was prepared by dilution with DMSO.
3. 98 μL of blank control plasma was added to 2 μL of the test compound solution (100 μM), so that the final concentration of the mixed solution of the two reached 2 μM, and the mixed solution was placed in a 37° C. water bath for incubation.
4. At each time point (0, 10, 30, 60, and 120 min), 1(X) μL of H3PO4 solution and 800 μL of stop solution (200 ng/mL of tolbutamide and 200 ng/mL of labetalol in 100% methanol solution) were added to precipitate protein, and mixed thoroughly.
5. The samples were centrifuged at 4000 rpm for 20 min, and 1(X) μL of supernatant was taken from each well for LC-MS/MS analysis.

| Structure (SMILES) | EC50 (GIPR) | half-life ([1]; 2 μM, 37° C.) | half-life at 2 μM [1] |
| --- | --- | --- | --- |
| CC[C@H](C)[C@H](NC(=O)[C@H](CC(C)C)NC(=O)[C@H](Cc1c[nH]c2ccccc12)NC(=O)[C@@H]1CCC(=O)NCCCC[C@H](NC(=O)[C@H](CCC(N)=O)NC(=O)[C@H](C)NC(=O)[C@H](CCCCNC(=O)COCCOCCNC(=O)COCCOCCNC(=O)CC[C@H](NC(=O)CC[C@H](NC(=O)CCCCCCCCCCCCCCCCCCC(=O)O)C(=O)O)C(=O)O)NC(=O)[C@H](CCCCN)NC(=O)[C@H](CC(=O)O)NC(=O)[C@H](CC(C)C)NC(=O)C(C)(C)NC(=O)[C@@H](NC(=O)[C@H](CO)NC(=O)[C@H](Cc2ccc(O)cc2)NC(=O)[C@H](CC(=O)O)NC(=O)[C@H](CO)NC(=O)[C@@H](NC(=O)[C@H](Cc2ccccc2)NC(=O)[C@@H](NC(=O)CNC(=O)[C@H](CCC(=O)O)NC(=O)C(C)(C)NC(=O)[C@@H](N)Cc2ccc(O)cc2)[C@@H](C)O)[C@@H](C)O)[C@@H](C)CC)C(=O)N[C@@H](C)C(=O)N[C@@H](Cc2ccccc2)C(=O)N[C@@H](C(C)C)C(=O)N1)C(=O)N[C@@H](C)C(=O)NCC(=O)NCC(=O)N1CCC[C@H]1C(=O)N[C@@H](CO)C(=O)N[C@@H](CO)C(=O)NCC(=O)N[C@@H](C)C(=O)N1CCC[C@H]1C(=O)N1CCC[C@H]1C(=O)N1CCC[C@H]1C(=O)N[C@@H](CO)C(N)=O [WX-002] (H-Y[Aib]EGTFTSDYSI[Aib]LDKK([AEEA-AEEA-γGlu-γGlu-C20 diacid])AQKAFVEWLIAGGPSSGAPPPS-NH2; lactam 20-24) | 0.29 nM | > 4.82 h |  |
| CC[C@H](C)[C@H](NC(=O)[C@H](CC(C)C)NC(=O)[C@H](Cc1c[nH]c2ccccc12)NC(=O)[C@@H]1CCC(=O)NCCCC[C@H](NC(=O)[C@H](CCC(N)=O)NC(=O)[C@H](C)NC(=O)[C@H](CCCCNC(=O)COCCOCCNC(=O)COCCOCCNC(=O)CC[C@H](NC(=O)CCCCCCCCCCCCCCCCCCC(=O)O)C(=O)O)NC(=O)[C@H](CCCCN)NC(=O)[C@H](CC(=O)O)NC(=O)[C@H](CC(C)C)NC(=O)C(C)(C)NC(=O)[C@@H](NC(=O)[C@H](CO)NC(=O)[C@H](Cc2ccc(O)cc2)NC(=O)[C@H](CC(=O)O)NC(=O)[C@H](CO)NC(=O)[C@@H](NC(=O)[C@H](Cc2ccccc2)NC(=O)[C@@H](NC(=O)CNC(=O)[C@H](CCC(=O)O)NC(=O)C(C)(C)NC(=O)[C@@H](N)Cc2ccc(O)cc2)[C@@H](C)O)[C@@H](C)O)[C@@H](C)CC)C(=O)N[C@@H](C)C(=O)N[C@@H](Cc2ccccc2)C(=O)N[C@@H]([C@@H](C)CC)C(=O)N1)C(=O)N[C@@H](C)C(=O)NCC(=O)NCC(=O)N1CCC[C@H]1C(=O)N[C@@H](CO)C(=O)N[C@@H](CO)C(=O)NCC(=O)N[C@@H](C)C(=O)N1CCC[C@H]1C(=O)N1CCC[C@H]1C(=O)N1CCC[C@H]1C(=O)N[C@@H](CO)C(N)=O [WX-006] (H-Y[Aib]EGTFTSDYSI[Aib]LDKK([AEEA-AEEA-γGlu-C20 diacid])AQKAFIEWLIAGGPSSGAPPPS-NH2; lactam 20-24) | 0.45 nM |  | > 4.82 h |
| CC[C@H](C)[C@H](NC(=O)[C@H](CC(C)C)NC(=O)[C@H](Cc1c[nH]c2ccccc12)NC(=O)[C@@H]1CCC(=O)NCCCC[C@H](NC(=O)[C@H](CCC(N)=O)NC(=O)[C@H](C)NC(=O)[C@H](CCCCNC(=O)COCCOCCNC(=O)COCCOCCNC(=O)CC[C@H](NC(=O)CCCCCCCCCCCCCCCCCCC(=O)O)C(=O)O)NC(=O)[C@H](CCCCN)NC(=O)[C@H](CC(=O)O)NC(=O)[C@H](CC(C)C)NC(=O)C(C)(C)NC(=O)[C@@H](NC(=O)[C@H](CO)NC(=O)[C@H](Cc2ccc(O)cc2)NC(=O)[C@H](CC(=O)O)NC(=O)[C@H](CO)NC(=O)[C@@H](NC(=O)[C@H](Cc2ccccc2)NC(=O)[C@@H](NC(=O)CNC(=O)[C@H](CCC(=O)O)NC(=O)C(C)(C)NC(=O)[C@@H](N)Cc2ccc(O)cc2)[C@@H](C)O)[C@@H](C)O)[C@@H](C)CC)C(=O)N[C@@H](CCC(=O)O)C(=O)N[C@@H](Cc2ccccc2)C(=O)N[C@@H](C(C)C)C(=O)N1)C(=O)N[C@@H](C)C(=O)NCC(=O)NCC(=O)N1CCC[C@H]1C(=O)N[C@@H](CO)C(=O)N[C@@H](CO)C(=O)NCC(=O)N[C@@H](C)C(=O)N1CCC[C@H]1C(=O)N1CCC[C@H]1C(=O)N1CCC[C@H]1C(=O)N[C@@H](CO)C(N)=O [WX-005] (H-Y[Aib]EGTFTSDYSI[Aib]LDKK([AEEA-AEEA-γGlu-C20 diacid])AQKEFVEWLIAGGPSSGAPPPS-NH2; lactam 20-24) | 0.22 nM |  | > 4.82 h |
